# Patent US20240228488A1 (TAKEDA PHARMACEUTICAL COMPANY LIMITED, priority 2021, published 2024)
# Key:
# [1] = target: human activated kallikrein enzyme (Homo sapiens, UniProt P03952); assay: Plasma kallikrein inhibition, fluorogenic PFR-AMC substrate, 500 pM activated kallikrein format; assay type: biochemical; settings: 500 pM activated kallikrein, 300 uM PFR-AMC, 30 min preincubation, 10 min reaction; read-out: Primary Dose Response Assay: Average EC50
# Method in brief: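 High-enzyme format of the fluorogenic peptide assay, with EC50 taken from AMC signal: 500 pM activated kallikrein, 300 uM Pro-Phe-Arg-AMC, 30 min compound preincubation and 10 min reaction, all at room temperature, pH 7.5.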
# [2] = target: T1, plasma kallikrein (Homo sapiens, UniProt P03952); assay: Neat human plasma assay, FXIIa contact pathway-activated, PFR-AMC substrate; assay type: biochemical; settings: citrated human plasma 78% final, 10 nM human FXIIa, 100 μM PFR-AMC; read-out: Human Plasma Assay: IC90
# T1 construct: from tissue
# T1 sequence (P03952 391-638 limits assumed): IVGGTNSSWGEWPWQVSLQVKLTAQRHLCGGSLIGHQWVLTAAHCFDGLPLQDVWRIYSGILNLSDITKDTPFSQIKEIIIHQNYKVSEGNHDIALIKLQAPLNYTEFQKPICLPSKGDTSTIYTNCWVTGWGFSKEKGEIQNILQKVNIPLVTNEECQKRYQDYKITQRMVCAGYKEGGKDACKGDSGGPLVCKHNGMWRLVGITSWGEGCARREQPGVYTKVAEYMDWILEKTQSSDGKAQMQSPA
# T1 sequence (P03952 20-390 partner limits assumed): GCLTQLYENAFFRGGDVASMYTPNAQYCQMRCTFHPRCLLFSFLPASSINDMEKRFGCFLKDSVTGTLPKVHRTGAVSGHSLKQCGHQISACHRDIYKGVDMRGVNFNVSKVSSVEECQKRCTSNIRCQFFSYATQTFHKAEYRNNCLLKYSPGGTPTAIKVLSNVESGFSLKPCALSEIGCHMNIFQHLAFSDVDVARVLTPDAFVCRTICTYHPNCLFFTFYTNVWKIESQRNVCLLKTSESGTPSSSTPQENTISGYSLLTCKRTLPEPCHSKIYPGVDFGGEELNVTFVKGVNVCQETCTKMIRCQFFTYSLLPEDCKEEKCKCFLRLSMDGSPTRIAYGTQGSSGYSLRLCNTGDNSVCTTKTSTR
# Method in brief: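 Compound inhibition of plasma kallikrein measured as PFR-AMC (100 μM) cleavage rate over 5 min at room temperature in 78% citrated human plasma activated with 10 nM FXIIa (Tris pH 7.5 buffer). IC50/IC90 from 4-parameter fit of rate versus inhibitor concentration.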
# Sequence of human activated kallikrein enzyme (P03952 391-638 limits assumed): as the sequence (P03952 391-638 limits assumed) above
# Sequence of human activated kallikrein enzyme (P03952 20-390 partner limits assumed): as the sequence (P03952 20-390 partner limits assumed) above
EC50 [1] [nM],IC90 [2] [nM],SMILES
< 1,1500 to 10000,"O=C(Nc1cc(NCc2cn3cc(C4CC4)ccc3n2)cc(O)n1)[C@H]1C[C@@H]1c1cccc(Cl)c1 [Example 611, (1S,2S)-2-(3-chlorophenyl)-N-(4-(((6-cyclopropylimidazo[1,2-a]pyridin-2-yl)methyl)amino)-6-hydroxypyridin-2-yl)cyclopropane-1-carboxamide]"
< 1,< 400,"CN1CC(O)(c2cc(C3CC3)cn3cc(CNc4cc(NC(=O)[C@H]5C[C@@H]5c5cccc(Cl)c5)ncn4)nc23)C1 [Example I-198, (1S,2S)-2-(3-chlorophenyl)-N-(6-(((6-cyclopropyl-8-(3-hydroxy-1-methylazetidin-3-yl)imidazo[1,2-a]pyridin-2-yl)methyl)amino)pyrimidin-4-yl)cyclopropane-1-carboxamide]"
1 to 10,1500 to 10000,"O=C(Nc1cc(NCc2cn3cc(C4CC4)cc(N4CCN5CC(O)CC5C4)c3n2)ncn1)[C@H]1C[C@@H]1c1cccc(Cl)c1 (stereo partly drawn) [Example I-196, (1S,2S)-2-(3-chlorophenyl)-N-(6-(((6-cyclopropyl-8-(7-hydroxyhexahydropyrrolo[1,2-a]pyrazin-2(1H)-yl)imidazo[1,2-a]pyridin-2-yl)methyl)amino)pyrimidin-4-yl)cyclopropane-1-carboxamide]"
< 1,1500 to 10000,"O=C(Nc1cc(N(CCO)Cc2cn3cc(C4CC4)ccc3n2)ccn1)[C@H]1C[C@@H]1c1cc(Cl)ccn1 [Example 137, (1S,2S)-2-(4-chloropyridin-2-yl)-N-(4-(((6-cyclopropylimidazo[1,2-a]pyridin-2-yl)methyl)(2-hydroxyethyl)amino)pyridin-2-yl)cyclopropane-1-carboxamide]"
< 1,1500 to 10000,"O=C(Nc1cc(NCc2cn3cc(C4CC4)cc(N4CC5CC5C4=O)c3n2)ccn1)[C@H]1C[C@@H]1c1cccc(Cl)c1 (stereo partly drawn) [Example 95, (S,2S)-2-(3-chlorophenyl)-N-(4-(((6-cyclopropyl-8-(2-oxo-3-azabicyclo[3.1.0]hexan-3-yl)imidazo[1,2-a]pyridin-2-yl)methyl)amino)pyridin-2-yl)cyclopropane-1-carboxamide]"
< 1,400 to 1500,"O=C(Nc1cc(NCc2cn3cc(C4CC4)cc(N4CCNCC4)c3n2)ccn1)[C@H]1C[C@@H]1c1cccc(Cl)c1 [Example 132, (1S,2S)-2-(3-chlorophenyl)-N-(4-(((6-cyclopropyl-8-(piperazin-1-yl)imidazo[1,2-a]pyridin-2-yl)methyl)amino)pyridin-2-yl)cyclopropane-1-carboxamide]"
< 1,1500 to 10000,"O=C(Nc1cc(NCc2cn3cc(C4CC4)cc(N4CCNC4=O)c3n2)ncn1)[C@H]1C[C@@H]1c1cccc(Cl)c1 [Example 309, (1S,2S)-2-(3-chlorophenyl)-N-(6-(((6-cyclopropyl-8-(2-oxoimidazolidin-1-yl)imidazo[1,2-a]pyridin-2-yl)methyl)amino)pyrimidin-4-yl)cyclopropane-1-carboxamide]"
1 to 10,400 to 1500,"O=C(Nc1cc(NCc2cn3cc(C4CC4)cc(N4CCN(C5COC5)CC4)c3n2)ncn1)[C@H]1C[C@@H]1c1cccc(Cl)c1 [Example I-202, (1S,2S)-2-(3-chlorophenyl)-N-(6-(((6-cyclopropyl-8-(4-(oxetan-3-yl)piperazin-1-yl)imidazo[1,2-a]pyridin-2-yl)methyl)amino)pyrimidin-4-yl)cyclopropane-1-carboxamide]"
< 1,1500 to 10000,"CN1CCN(c2cc(C3CC3)cn3cc(CNc4cc(NC(=O)[C@H]5C[C@@H]5c5cc(Cl)ccn5)ncn4)nc23)CC1 (racemic) [Example I-192, rac-(1S*,2S*)-2-(4-chloropyridin-2-yl)-N-(6-(((6-cyclopropyl-8-(4-methylpiperazin-1-yl)imidazo[1,2-a]pyridin-2-yl)methyl)amino)pyrimidin-4-yl)cyclopropane-1-carboxamide]"
